Test results as given in patent US12186317B2, “Inhibitors of alpha-amino-beta-carboxymuconic acid semialdehyde decarboxylase” (TES Pharma S.r.l., priority 2018, dated 2025).
pIC50: −log10 of the molar value.

The compounds below were run against T1, hACMSD (ACMSD1) (Homo sapiens, UniProt Q8TDX5) (assay: Determination of ACMSD1 inhibition, spectrophotometrical in vitro assay (conversion of 3OH-anthranilic acid into ACMS)). Settings: HAA concentration of 10 μM; recombinant ACMSD1 from Pichia pastoris; 25° C.; absorbance at 360 nm.
T1 construct: made in house; host or cells: Pichia pastoris
T1 sequence (Q8TDX5 whole entry): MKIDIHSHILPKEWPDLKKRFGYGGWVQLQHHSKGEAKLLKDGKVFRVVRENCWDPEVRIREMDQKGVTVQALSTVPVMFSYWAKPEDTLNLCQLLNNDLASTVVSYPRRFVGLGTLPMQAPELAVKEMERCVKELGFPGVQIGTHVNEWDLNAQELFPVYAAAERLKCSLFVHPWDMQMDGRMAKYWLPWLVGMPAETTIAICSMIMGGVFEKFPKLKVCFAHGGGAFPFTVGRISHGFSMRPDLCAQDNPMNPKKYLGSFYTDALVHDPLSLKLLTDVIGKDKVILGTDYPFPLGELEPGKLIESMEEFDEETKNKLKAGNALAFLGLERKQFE
Type: biochemical
Description: The activity of compounds as inhibitors of ACMSD1 is determined in a spectrophotometrical in vitro assay. The pre-assay mixture is incubated and a compound of Formula (I) or (II), or a pharmaceutically acceptable salt thereof, and ACMSD1 solution is then added. The effect of ACMS concentration on the enzyme activity is investigated by varying 3-hydroxyanthranilic acid (30H-HA) concentration in the pre-assay mixture. Kinetic parameters are calculated from the initial velocity data using a Lineweaver-Burk plot.
The pre-assay mixture consisting of 3-hydroxyanthranilic acid (30H-HA), 3-hydroxyanthranilic acid, 3,4-diOxygenase (HAO), and a dialyzed crude extract of E. coli BL21 (DE3) cells expressing the recombinant enzyme, was incubated at 25° C. with monitoring of the increase in absorbance at 360 nm due to the formation of ACMS from 30H-HA. After the reaction was completed within ˜2 mins, an aliquot of ACMSD1 solution (prepared and purified from Pichia pastoris overexpressing the recombinant enzyme) was added, and the decrease in absorbance at 360 nm was followed at 15 second intervals. The effect of ACMS concentration on the enzyme activity was investigated by varying 30H-HA concentration from 2 to 20 μM. Kinetic parameters were calculated from the initial velocity data by using the Lineweaver-Burk plot.
The rate of the decrease in absorbance caused by ACMSD1 was calculated by subtracting that of the control reaction mixture without ACMSD from that described above. One unit of ACMSD activity was indicated as the amount of enzyme that converts 1 mmol of ACMS per minute at 25° C.
The enzymatic activity was determined at a HAA concentration of 10 μM in the presence of the compounds in Table 1 below. […] In Table 1, A is <0.1 μM; B is 0.1 to 1 μM; C is 1 to 10 μM; and D is >10 μM.

Compound	pIC50
N#Cc1c(-c2cccs2)nc(SCc2nnn[nH]2)[nH]c1=O [I-25, 6-Oxo-2-(1H-tetrazol-5-ylmethylsulfanyl)-4-thiophen-2-yl-1,6-dihydro-pyrimidine-5-carbonitrile]	> 7.00
COc1nc(SCc2cccc(CC(=O)O)c2)nc(-c2cccs2)c1C#N [I-4, [3-(5-Cyano-4-methoxy-6-thiophen-2-yl-pyrimidin-2-ylsulfanylmethyl)-phenyl]-acetic acid]	5.00 to 6.00
N#CCc1cccc(CSc2nc(-c3cccs3)c(C#N)c(=O)[nH]2)c1 [I-13, 2-(3-Cyanomethyl-benzylsulfanyl)-6-oxo-4-thiophen-2-yl-1,6-dihydro-pyrimidine-5-carbonitrile]	5.00 to 6.00
Cn1nnc(-c2cccc(CSc3nc(-c4cccs4)c(C#N)c(=O)[nH]3)c2)n1 [I-14, 2-[3-(2-Methyl-2H-tetrazol-5-yl)-benzylsulfanyl]-6-oxo-4-thiophen-2-yl-1,6-dihydro-pyrimidine-5-carbonitrile]	5.00 to 6.00
N#Cc1c(-c2cccs2)nc(NCc2cccc(CC(=O)O)c2)[nH]c1=O [I-50]	5.00 to 6.00
N#Cc1c(Cc2ccccc2)nc(SCc2cccc(C(=O)O)c2)[nH]c1=O [I-35, 3-(4-Benzyl-5-cyano-6-oxo-1,6-dihydro-pyrimidin-2-ylsulfanylmethyl)-benzoic acid]	6.00 to 7.00
O=C(O)Cc1cccc(CSc2nc(C(F)(F)F)cc(=O)[nH]2)c1 [I-28, [3-(6-Oxo-4-trifluoromethyl-1,6-dihydro-pyrimidin-2-ylsulfanylmethyl)-phenyl]-acetic acid]	6.00 to 7.00
N#Cc1c(Br)nc(SCc2cccc(CC(=O)O)c2)nc1-c1cccs1 [I-5, [3-(4-Bromo-5-cyano-6-thiophen-2-yl-pyrimidin-2-ylsulfanylmethyl)-phenyl]-acetic acid]	6.00 to 7.00
N#Cc1c(N)nc(SCc2cccc(CC(=O)O)c2)nc1-c1cccs1 [I-7, [3-(4-Amino-5-cyano-6-thiophen-2-yl-pyrimidin-2-ylsulfanylmethyl)-phenyl]-acetic acid]	6.00 to 7.00
CNc1nc(SCc2cccc(CC(=O)O)c2)nc(-c2cccs2)c1C#N [I-9, [3-(5-Cyano-4-methylamino-6-thiophen-2-yl-pyrimidin-2-ylsulfanylmethyl)-phenyl]-acetic acid]	6.00 to 7.00
N#Cc1c(-c2cccs2)nc(SCc2cccc(-c3nn[nH]n3)c2)[nH]c1=O [I-43]	> 7.00
N#Cc1c(-c2ccccc2)cc(=O)[nH]c1SCc1cccc(CC(=O)O)c1 [I-19, [3-(3-Cyano-6-oxo-4-phenyl-1,6-dihydro-pyridin-2-ylsulfanylmethyl)-phenyl]-acetic acid]	> 7.00
N#Cc1c(-c2cccs2)nc(N[C@H]2CC[C@H](C(=O)O)CC2)[nH]c1=O [I-46]	< 5.00
O=C(O)CSc1nc(C(F)(F)F)cc(=O)[nH]1 [I-27, (6-Oxo-4-trifluoromethyl-1,6-dihydro-pyrimidin-2-ylsulfanyl)-acetic acid]	6.00 to 7.00
N#Cc1c(Cc2ccccc2)nc(SCc2cccc(-c3nnn[nH]3)c2)[nH]c1=O [I-34, 4-Benzyl-6-oxo-2-[3-(1H-tetrazol-5-yl)-benzylsulfanyl]-1,6-dihydro-pyrimidine-5 carbonitrile]	> 7.00
N#Cc1c(-c2cccs2)nc(SCc2cccc(-c3cc(F)c(O)c(F)c3)c2)[nH]c1=O [I-3, 2-({[3-(3,5-difluoro-4-hydroxyphenyl)phenyl]methyl}sulfanyl)-6-oxo-4-(thiophen-2-yl)-1,6-dihydropyrimidine-5-carbonitrile]	> 7.00
N#Cc1c(-c2cccs2)nc(NCc2ccc(-c3nnn[nH]3)cc2)[nH]c1=O [I-51]	6.00 to 7.00
N#Cc1c(-c2cccs2)nc(SCc2cccc(CC(=O)O)c2)nc1N1CCNCC1 [I-16, [3-(5-Cyano-4-piperazin-1-yl-6-thiophen-2-yl-pyrimidin-2-ylsulfanylmethyl)-phenyl]-acetic acid]	< 5.00
CNc1nc(SCc2cccc(C(=O)O)c2)nc(-c2cccs2)c1C#N [I-10, 3-(5-Cyano-4-methylamino-6-thiophen-2-yl-pyrimidin-2-ylsulfanylmethyl)-benzoic acid]	5.00 to 6.00
N#Cc1c(Cc2ccccc2)cc(=O)[nH]c1SCc1cccc(CC(=O)O)c1 [I-23, [3-(4-Benzyl-3-cyano-6-oxo-1,6-dihydro-pyridin-2-ylsulfanylmethyl)-phenyl]-acetic acid]	5.00 to 6.00
N#Cc1c(Cc2ccccc2)nc(SCc2cccc(CC(=O)O)c2)[nH]c1=O [I-33, [3-(4-Benzyl-5-cyano-6-oxo-1,6-dihydro-pyrimidin-2-ylsulfanylmethyl)-phenyl]-acetic acid]	> 7.00

Compound	pIC50
N#Cc1c(-c2cccs2)nc(SCCC(=O)O)[nH]c1=O [I-37]	5.00 to 6.00
N#Cc1c(-c2cccs2)cc(=O)[nH]c1SCc1cccc(CC(=O)O)c1 [I-20, [3-(3-Cyano-6-oxo-4-thiophen-2-yl-1,6-dihydro-pyridin-2-ylsulfanylmethyl)-phenyl]-acetic acid]	> 7.00
N#Cc1c(SCc2cccc(-c3nnn[nH]3)c2)[nH]c(=O)c(C#N)c1-c1cccs1 [I-22, 2-Oxo-6-[3-(1H-tetrazol-5-yl)-benzylsulfanyl]-4-thiophen-2-yl-1,2-dihydro-pyridine-3,5-dicarbonitrile]	> 7.00
N#Cc1c(NC2CC2)nc(SCc2cccc(CC(=O)O)c2)nc1-c1cccs1 [I-6, [3-(5-Cyano-4-cyclopropylamino-6-thiophen-2-yl-pyrimidin-2-ylsulfanylmethyl)-phenyl]-acetic acid]	5.00 to 6.00
N#Cc1c(-c2cccs2)nc(SCC(=O)O)[nH]c1=O [I-24, (5-Cyano-6-oxo-4-thiophen-2-yl-1,6-dihydro-pyrimidin-2-ylsulfanyl)-acetic acid]	5.00 to 6.00
N#Cc1c(C(F)(F)F)cc(=O)[nH]c1SCc1cccc(CC(=O)O)c1 [I-36, [3-(3-cyano-6-oxo-4-trifluoromethyl-1,6-dihydro-pyridin-2-ylsulfanylmethyl)-phenyl]-acetic acid]	6.00 to 7.00
N#Cc1c(Cc2ccccc2)nc(SCc2nnn[nH]2)[nH]c1=O [I-32]	> 7.00
N#Cc1c(Cc2ccccc2)nc(SCC(=O)O)[nH]c1=O [I-30, (4-Benzyl-5-cyano-6-oxo-1,6-dihydro-pyrimidin-2-ylsulfanyl)-acetic acid]	6.00 to 7.00
N#Cc1cccc(CSc2nc(-c3cccs3)c(C#N)c(=O)[nH]2)c1 [I-11, 2-(3-Cyano-benzylsulfanyl)-6-oxo-4-thiophen-2-yl-1,6-dihydro-pyrimidine-5-carbonitrile]	5.00 to 6.00
N#Cc1c(Cc2ccccc2)nc(SCc2cc(F)c(O)c(F)c2)[nH]c1=O [I-41, 4-Benzyl-2-(3,5-difluoro-4-hydroxy-benzylsulfanyl)-6-oxo-1,6-dihydro-pyrimidine-5-carbonitrile]	5.00 to 6.00
N#Cc1c(SCc2cccc(CC(=O)O)c2)[nH]c(=O)c(C#N)c1-c1cccs1 [I-21, [3-(3,5-Dicyano-6-oxo-4-thiophen-2-yl-1,6-dihydro-pyridin-2-ylsulfanylmethyl)-phenyl]-acetic acid]	> 7.00
N#Cc1c(-c2cccs2)nc(NCc2cccc(Cc3nnn[nH]3)c2)[nH]c1=O [I-49]	> 7.00
N#Cc1c(-c2cccs2)nc(NCc2cccc(C(=O)O)c2)[nH]c1=O [I-48]	5.00 to 6.00
O=C(O)c1cccc(CSc2nc(C(F)(F)F)cc(=O)[nH]2)c1 [I-31, 3-(6-Oxo-4-trifluoromethyl-1,6-dihydro-pyrimidin-2-ylsulfanylmethyl)-benzoic acid]	5.00 to 6.00
N#Cc1c(-c2cccs2)nc(SCc2cccc(CC(=O)O)c2)nc1N1CCOCC1 [I-15, [3-(5-Cyano-4-morpholin-4-yl-6-thiophen-2-yl-pyrimidin-2-ylsulfanylmethyl)-phenyl]-acetic acid]	5.00 to 6.00
CCOC(=O)Cc1cccc(CSc2nc(-c3cccs3)c(C#N)c(=O)[nH]2)c1 [I-1, [3-(5-Cyano-6-oxo-4-thiophen-2-yl-1,6-dihydro-pyrimidin-2-ylsulfanylmethyl)-phenyl]-acetic acid ethyl ester]	5.00 to 6.00
CCOC(=O)Cc1cccc(CSc2nc(=O)c(C#N)c(-c3cccs3)n2C)c1 [I-17, [3-(5-Cyano-1-methyl-4-oxo-6-thiophen-2-yl-1,4-dihydro-pyrimidin-2-ylsulfanylmethyl)-phenyl]-acetic acid ethyl ester]	< 5.00
N#Cc1c(-c2cccs2)nc(SCc2cccc(CCO)c2)[nH]c1=O [I-12, 2-[3-(2-Hydroxy-ethyl)-benzylsulfanyl]-6-oxo-4-thiophen-2-yl-1,6-dihydropyrimidine-5-carbonitrile]	5.00 to 6.00
N#Cc1c(-c2cccs2)nc(SCc2cccc(S(N)(=O)=O)c2)[nH]c1=O [I-18, 3-(5-Cyano-6-oxo-4-thiophen-2-yl-1,6-dihydro-pyrimidin-2-ylsulfanylmethyl)-benzenesulfonamide]	6.00 to 7.00
N#Cc1c(-c2cccs2)nc(SCc2cccc(C(N)=O)c2)[nH]c1=O [I-2, 3-(5-Cyano-6-oxo-4-thiophen-2-yl-1,6-dihydro-pyrimidin-2-ylsulfanylmethyl)-benzamide]	6.00 to 7.00
